Patent US20140171436A1, “TREATMENT OF ANTIFOLATE NEUROTOXICITY” (Syntrix Biosystems, Inc., priority 2003, published 2014)
“And” between values parts separate entries of the source, which are not always exact repeats. Equal entries are not always repeated.

How the values were obtained:
[1] = in vivo; cited from earlier work
[2] = target: NMDA receptor; details: read-out: Ki NMDAR; cited from earlier work
[3] = target: sigma-1 receptor (Homo sapiens, UniProt Q99720); details: cited from earlier work; for Ki: read-out: sigma-1 affinity Ki
[4] = target: sigma-2 (Homo sapiens, UniProt Q5BJF2); details: read-out: Ki sigma-2; cited from earlier work
[5] = system: patients with AF-NT (MTX neurotoxicity); assay: Patients with AF-NT treated with oral dextromethorphan; format: in vivo, human
From the text: For example, the intensity, duration and frequency of neurological symptoms such as seizure, paralysis, nystagmus, ataxia, dysarthria, aphasia cranial nerve palsy, asthenia can be readily determined by clinical evaluation. A variety of validated grading methods are available to assess such symptoms. As used herein, useful strategies for grading such objective AF-NT symptoms include time to initial response, time to resolution of all symptoms, and a grade (1-3) of the rate of symptom resolution for the majority of all AF-NT symptoms. In this grading system, a grade 1 is where symptoms resolve gradually or linearly over an extended period exceeding 96 hours, a grade 2 is where the majority of symptoms resolve in 25 to 96 hours), and a grade 3 is where the majority of symptoms resolve in 24 hours or less: the greater the grade, the greater degree of symptom improvement. Physical deficits that can be objectively assessed generally appear in patients with moderate- to high-dose exposure to antifolate.
The mean grade of symptom resolution for untreated patients was 1.4±0.2 (mean±SEM), while the mean grade of symptom resolution for treated patients was 2.3±0.2 (mean±SEM).

[6] = frequent and massive doses as large as 3300 mg/day; cited from earlier work
[7] = Example 1: NHL, 32 M, MTX 12 mg IT, oral DM 1 mg/kg once
[8] = Example 2: ALL, 15 M, MTX 12 mg IT and 100 mg/m^2 IV, oral DM 2 mg/kg × 1
[9] = Example 3: ALL, 19 M, MTX 7.5 mg IO and 1 g/m^2 IV, oral DM 1 mg/kg TID
[10] = Example 4: OS, 13 M, MTX 12 g/m^2 IV, oral DM 1 mg/kg TID
[11] = Example 4, DM 1 mg/kg three times on a single day
[12] = Example 5: OS, 16 M, MTX 12 g/m^2 IV, oral DM 1 mg/kg × 1
[13] = Example 6: ALL, 18 F, MTX 12 mg IT, oral DM 1 mg/kg BID
[14] = Example 7: ALL, 6 F, MTX 12 mg IT, oral DM 1 mg/kg BID × 3
[15] = Example 8: ALL, 9 F, MTX 12 mg IT, oral DM 1 mg/kg BID
[16] = Example 9: ALL, 14 M, IV and IT MTX, oral DM 1 mg/kg TID
[17] = Example 10: ALL, 8 F, MTX 12 mg IT, oral DM 1 mg/kg BID
[18] = Example 11: ALL, 15 F, MTX 12 mg IT, oral DM 1 mg/kg BID
[19] = Example 12: ALL, 5 M, IV and IT MTX, oral DM 1 mg/kg TID
[20] = Example 13: ALL, 13 M, MTX 12 mg IT, oral DM 1 mg/kg BID
[21] = Example 14: ALL, 14 F, MTX 12 mg IT, oral DM 1 mg/kg BID
[22] = Example 15: ALL, 13 F, MTX 12 mg IT, oral DM 1.5 mg/kg BID × 6
[23] = Example 16: ALL, 6 M, MTX 12 mg IT, oral DM 1 mg/kg BID × 5

Chain of sigma-1 receptor (Q99720 whole entry, species assumed): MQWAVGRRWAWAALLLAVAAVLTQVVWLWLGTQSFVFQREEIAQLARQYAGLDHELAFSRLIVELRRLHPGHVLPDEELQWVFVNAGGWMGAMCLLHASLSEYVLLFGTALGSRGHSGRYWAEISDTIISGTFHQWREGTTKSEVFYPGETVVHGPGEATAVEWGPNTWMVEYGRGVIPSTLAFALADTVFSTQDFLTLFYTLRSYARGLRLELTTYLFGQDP
Chain of sigma-2 (Q5BJF2 whole entry): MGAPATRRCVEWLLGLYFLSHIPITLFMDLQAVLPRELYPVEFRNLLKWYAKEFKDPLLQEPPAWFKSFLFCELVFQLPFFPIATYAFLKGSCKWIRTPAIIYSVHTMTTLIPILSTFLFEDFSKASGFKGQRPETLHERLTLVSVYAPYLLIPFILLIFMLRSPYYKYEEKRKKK

Question: With `CC12CC3CC(C)(C1)CC(N)(C3)C2` [memantine] as the compound, how does the “mean CSF/serum ratio” value [1] read?
Answer: The value was 0.52.

Question: What about the Ki [2] of the same compound?
Answer: The Ki was 500 nM.

Question: And the Ki [3]?
Answer: The Ki was 2600 nM.

Question: Which results are given for `COc1ccc2c(c1)[C@@]13CCCC[C@H]1[C@@H](C2)N(C)CC3` [dextromethorphan, (+)-3-methoxy-N-methylmorphinan]?
Answer: Ki [4]: 4000 to 11000 nM; Kd ([3]; read-out: sigma-1 affinity Kd): 20 nM; Ki [3]: 205 nM and 210 nM; Grade (1-3) of symptom resolution [5, 7]: 3 (3 = rapid (majority of symptoms resolved in 24 hours or less)); Time to initial response [5, 7]: 3 h; Time to resolution of all symptoms [5, 7]: 24 h; Grade (1-3) of symptom resolution [5, 8]: 3 (3 = rapid (majority of symptoms resolved in 24 hours or less)); Time to initial response [5, 8]: 0.50 h; Time to resolution of all symptoms [5, 8]: 6 h; duration of symptoms ([5]; Example 3, text, DM 1 mg/kg three times on a single day): 10 days; Grade (1-3) of symptom resolution [5, 9]: 1 (1 = gradual (symptoms resolved gradually or linearly over an extended period exceeding 96 hours)); Time to initial response [5, 9]: 3 h; Time to resolution of all symptoms [5, 9]: 240 h; Grade (1-3) of symptom resolution [5, 10]: 2 (2 = moderate (majority of symptoms resolved in 25 to 96 hours)); Time to initial response [5, 10]: 0.75 h; Time to resolution of all symptoms [5, 10]: 72 h; duration of symptoms [5, 11]: 3 days; time until symptoms began to improve [5, 11]: 45 min; duration of symptoms ([5]; Example 5, text, DM 1 mg/kg once): 0.0208 days; Grade (1-3) of symptom resolution [5, 12]: 3 (3 = rapid (majority of symptoms resolved in 24 hours or less)); Time to initial response [5, 12]: 0.50 h; Time to resolution of all symptoms [5, 12]: 0.50 h; persistent confusion ([5]; Example 6, text, DM 1 mg/kg po BID): 8 days; Grade (1-3) of symptom resolution [5, 13]: 2 (2 = moderate (majority of symptoms resolved in 25 to 96 hours)); Time to initial response [5, 13]: 24 h; Time to resolution of all symptoms [5, 13]: 192 h; Grade (1-3) of symptom resolution [5, 14]: 3 (3 = rapid (majority of symptoms resolved in 24 hours or less)); Time to initial response [5, 14]: 4 h; Grade (1-3) of symptom resolution [5, 15]: 2 (2 = moderate (majority of symptoms resolved in 25 to 96 hours)); Time to initial response [5, 15]: 2 h; Grade (1-3) of symptom resolution [5, 16]: 3 (3 = rapid (majority of symptoms resolved in 24 hours or less)); Time to initial response [5, 16]: 2 h; Time to resolution of all symptoms [5, 16]: 3 h; time to complete resolution ([5]; Example 10, text, DM 1 mg/kg po BID for 24 hours): 5 days; Grade (1-3) of symptom resolution [5, 17]: 2 (2 = moderate (majority of symptoms resolved in 25 to 96 hours)); Time to resolution of all symptoms [5, 17]: 120 h; time until back to baseline ([5]; Example 11, text, DM 1 mg/kg po BID): 8 days; Grade (1-3) of symptom resolution [5, 18]: 3 (3 = rapid (majority of symptoms resolved in 24 hours or less)); Time to initial response [5, 18]: 24 h; Time to resolution of all symptoms [5, 18]: 192 h; Grade (1-3) of symptom resolution [5, 19]: 3 (3 = rapid (majority of symptoms resolved in 24 hours or less)); Time to initial response [5, 19]: 24 h; Time to resolution of all symptoms [5, 19]: 24 h; Grade (1-3) of symptom resolution [5, 20]: 3 (3 = rapid (majority of symptoms resolved in 24 hours or less)); Time to initial response [5, 20]: 24 h; Time to resolution of all symptoms [5, 20]: 24 h; time until able to speak ([5]; Example 14, text, DM 1 mg po BID by nasogastric tube): 9 days; Grade (1-3) of symptom resolution [5, 21]: 1 (1 = gradual (symptoms resolved gradually or linearly over an extended period exceeding 96 hours)); Time to initial response [5, 21]: 216 h; Time to resolution of all symptoms [5, 21]: >1000 h; Grade (1-3) of symptom resolution [5, 22]: 1 (1 = gradual (symptoms resolved gradually or linearly over an extended period exceeding 96 hours)); Time to resolution of all symptoms [5, 22]: >1000 h; time to complete resolution ([5]; Example 16, text, DM 1 mg/kg po BID for 5 days): about 5 days; Grade (1-3) of symptom resolution [5, 23]: 1 (1 = gradual (symptoms resolved gradually or linearly over an extended period exceeding 96 hours)) and 2 (2 = moderate (majority of symptoms resolved in 25 to 96 hours)); Time to initial response [5, 23]: 24 to 48 h and 24 h; Time to resolution of all symptoms [5, 23]: 120 h; mean grade of symptom resolution (mean±SEM) ([5]; treated patients, Examples 1-16, P 0.0042 vs untreated, unpaired t test): 2.3±0.2; side-effects [6]: unacceptable PCP-like side-effects
